Assay results published in ChEMBL document CHEMBL5550119, “Design, synthesis, and evaluation of formylpiperazine analogs of Ferrostatin-1 as novel improved ferroptosis inhibitors” (Bioorg Med Chem, 2024).
Converted amounts (≈) assume the structure as drawn. The source made the active and inactive calls. The rule behind the calls is not given here.

Assays:
HUVEC [1] = assay: Anti-ferroptosis activity in HUVEC cells assessed as inhibition of erastin-induced ferroptosis by measuring lethality suppression incubated for 24 hrs by SRB assay; format: functional, cell-based; conditions: Homo sapiens
[2] = Solubility of compound in PBS buffer at pH 7.4 at 3.13 to 200 uM incubated for 2 hrs by turbidity based assay; format: physicochemical; conditions: dose 3.13-200 µM
[3] = Antioxidant activity assessed as DPPH radical scavenging activity at 50 uM incubated under dark condition for 30 mins by absorbance based analysis relative to control; format: functional
[4] = Antioxidant activity assessed as DPPH radical scavenging activity incubated under dark condition for 30 mins by absorbance based analysis; format: functional
HUVEC [5] = assay: Anti-ferroptosis activity in erastin-induced HUVEC cells assessed as reduction in cytoplasmic ferrous ion level at 10 uM incubated for 24 hrs by FerroOrange fluorescent probe based fluorescence microscopic analysis; format: functional, cell-based; conditions: Homo sapiens
HUVEC [6] = assay: Anti-ferroptosis activity in erastin-induced HUVEC cells assessed as reduction in ROS level by measuring reduction in DCF fluorescence intensity at 10 uM incubated for 24 hrs by DCFH-DA fluorescent probe based fluorescence microscopic analysis; format: functional, cell-based; conditions: Homo sapiens
HUVEC [7] = assay: Anti-ferroptosis activity in erastin-induced HUVEC cells assessed as reduction in mitochondrial impairment by measuring reduction in number of JC-1 monomers at 10 uM incubated for 24 hrs by JC-1 fluorescent probe based fluorescence microscopic analysis; format: functional, cell-based; conditions: Homo sapiens
HUVEC [8] = assay: Anti-ferroptosis activity in erastin-induced HUVEC cells assessed as increase in GSH level at 10 uM incubated for 24 hrs; format: functional, cell-based; conditions: Homo sapiens
HUVEC [9] = assay: Anti-ferroptosis activity in erastin-induced HUVEC cells assessed as increase in GPX4 protein level at 10 uM incubated for 24 hrs by Western blot analysis; format: functional, cell-based; conditions: Homo sapiens
[10] = Metabolic stability in human liver microsomes assessed as half life at […] incubated for 2 hrs in presence of NADPH by LC-MS/MS analysis; format: ADME, Microsome
[11] = Metabolic stability in rat liver microsomes assessed as half life at […] incubated for 2 hrs in presence of NADPH by LC-MS/MS analysis; format: ADME, Microsome
HUVEC [12] = assay: Anti-ferroptosis activity in erastin-induced HUVEC cells assessed as reduction in malondialdehyde level at 10 uM incubated for 24 hrs; format: functional, cell-based; conditions: Homo sapiens
HUVEC [13] = assay: Anti-ferroptosis activity in erastin-induced HUVEC cells assessed as reduction in lipid peroxidation level at 10 uM incubated for 24 hrs; format: functional, cell-based; conditions: Homo sapiens
HUVEC [14] = assay: Anti-ferroptosis activity in HUVEC cells assessed as inhibition of erastin-induced ferroptosis by measuring lethality suppression at 10 uM incubated for 24 hrs by SRB assay; format: functional, cell-based; conditions: Homo sapiens

Row | SMILES | solubility kinetic at 2 h [2] [µM] | IC50 [4] [µM] | half-life [10] [min] | half-life [11] [min] | EC50 (HUVEC [1]) [µM] | Activity [3] [%] | Activity (HUVEC [5]) | Activity (HUVEC [6]) | Activity (HUVEC [7]) | Activity (HUVEC [8]) | Activity (HUVEC [9]) | Activity (HUVEC [12]) | Activity (HUVEC [13]) | Activity (HUVEC [14])
1 | O=C(c1ccc(NC2CCCCC2)c(NCc2ccccc2)c1)N1CCN(Cc2ccncc2)CC1 | 20 (≈ 9.67 µg/mL) | 43.6 | – | – | 0.79 | 55.4 | – | – | – | – | – | – | – | –
2 | COc1ccc(Br)c(CN2CCN(C(=O)c3ccc(NC4CCCCC4)c(NCc4ccccc4)c3)CC2)c1 | 20 (≈ 11.8 µg/mL) | 41.3 | – | – | 0.68 | 63.8 | – | – | – | – | – | – | – | –
3 | CS(=O)(=O)c1ccc(CN2CCN(C(=O)c3ccc(NC4CCCCC4)c(NCc4ccccc4)c3)CC2)cc1 | 28.6 (≈ 16 µg/mL) | 28.9 | 50.2 | 35.7 | 0.5 | 54 | Active | Active | Active | Active | Active | Active | Active | –
4 | CN1CCN(C(=O)c2ccc(NC3CCCCC3)c(NCc3ccccc3)c2)CC1 | – | – | – | – | – | – | – | – | – | – | – | – | – | inactive
5 | O=C(c1ccc(NC2CCCCC2)c(NCc2ccccc2)c1)N1CCN(Cc2ccc(F)cc2Br)CC1 | 28.6 (≈ 16.6 µg/mL) | 60.8 | – | – | 0.73 | 50.5 | – | – | – | – | – | – | – | –

Now from value to compound, other results behind:

Row | solubility kinetic at 2 h [2] [µM] | IC50 [4] [µM] | half-life [10] [min] | half-life [11] [min] | SMILES | EC50 (HUVEC [1]) [µM] | Activity [3] [%] | Activity (HUVEC [5]) | Activity (HUVEC [6]) | Activity (HUVEC [7]) | Activity (HUVEC [8]) | Activity (HUVEC [9]) | Activity (HUVEC [12]) | Activity (HUVEC [13]) | Activity (HUVEC [14])
6 | 22.2 (≈ 14.1 µg/mL) | 42.9 | – | – | O=C(c1ccc(NC2CCCCC2)c(NCc2ccccc2)c1)N1CCN(Cc2ccc(-c3ccccc3)c(-c3ccccc3)c2)CC1 | 0.61 | 54 | – | – | – | – | – | – | – | –
7 | > 200 | 54.3 | 16.8 | 18.4 | CCOC(=O)c1ccc(NC2CCCCC2)c(N)c1 | – | 52.5 | Active | Active | Active | Active | Active | – | – | –
8 | 6.2 (≈ 2.19 µg/mL) | 46.8 | – | – | CCOC(=O)c1ccc(NC2CCCCC2)c(NCc2ccccc2)c1 | – | 56.4 | – | – | – | – | – | – | – | –
